Source: the NIST ThermoML archive (doi:10.1021/je800224k)

Details: Bellows volumetry

CCn1cc[n+](C)c1.F[P-](F)(F)(F)(F)F [1-ethyl-3-methylimidazolium hexafluorophosphate]
mass density [kg/m3]
Details | 312.8 K | 332.7 K | 352.7 K
10000 kPa, Crystal | 1562 | 1546 | –
10000 kPa, Liquid | – | – | 1428
20000 kPa, Crystal | 1565 | 1550 | –
20000 kPa, Liquid | – | – | 1434
30000 kPa, Crystal | 1569 | 1554 | –
30000 kPa, Liquid | – | – | 1440
40000 kPa, Crystal | 1572 | 1557 | –
40000 kPa, Liquid | – | – | 1446
50000 kPa, Crystal | 1576 | 1561 | –
50000 kPa, Liquid | – | – | 1451
60000 kPa, Crystal | 1579 | 1564 | –
70000 kPa, Crystal | 1582 | 1567 | –
80000 kPa, Crystal | 1585 | 1571 | –
90000 kPa, Crystal | 1588 | 1574 | –
100000 kPa, Crystal | 1591 | 1577 | –
110000 kPa, Crystal | 1594 | 1581 | –
120000 kPa, Crystal | 1597 | 1584 | –
130000 kPa, Crystal | 1600 | 1587 | –
140000 kPa, Crystal | 1603 | 1590 | –
150000 kPa, Crystal | 1606 | 1593 | –
160000 kPa, Crystal | 1609 | 1596 | –
170000 kPa, Crystal | 1612 | 1599 | –
180000 kPa, Crystal | 1615 | 1602 | –
190000 kPa, Crystal | 1617 | 1605 | –
200000 kPa, Crystal | 1620 | 1608 | –
